{"source": "patent EP2135612A1", "about": "“Use of ATP in the preparation of a medicament for treating, alleviating and/or enhancing survival of pre-terminal cancer patients” (Universiteit van Maastricht, priority 2008, dated 2009)", "key": {"IL-10": {"test_system": "IL-10", "conditions": "ex vivo stimulated whole blood; cited from earlier work"}, "[1]": {"test_system": "pre-terminal cancer patients", "experiment": "Randomized clinical trial: survival (Cox regression, Kaplan-Meier)", "assay_type": "in vivo", "experimental": "(§1) Ninety-nine pre-terminal cancer patients (estimated life expectancy 1-6 mo) with mixed tumor types were randomly allocated to receive either ATP i.v. weekly (8 h/wk, max. 50 µg/kg.min) for 8 weeks, or no ATP (control group). Nutritional status parameters were assessed until 8 weeks, and analyzed by repeated-measures analysis of covariance. Cox proportional hazards models were fitted to assess the effect of ATP on short term (0-8 weeks) and long term (0-6 months) survival.\n(§2) After baseline measurements, patients were stratified for center, tumor type, and weight loss (≤5% vs. >5% over past 6 months), and then randomly assigned to receive either usual care, standard nutritional advice and ATP (ATP group), or usual care and standard nutritional advice alone (control) group), using computer-generated random numbers with permutation blocks of four. In both groups, nutritional status parameters and co-interventions were assessed until 8 weeks.\n(§3) Patients allocated to the ATP group received weekly ATP infusions during 8-10 hours over a period of 8 weeks (21). The first ATP infusion was offered under medical supervision at the day care center of the participating hospitals. ATP infusions were started at a dose rate of 20 µg/kg·min and increased in steps of 10 µg/kg·min per 10 minutes, until reaching a maximum dose rate of 50 µg/kg·min, or the maximally tolerated dose (MTD) if this was lower, in case of side effects. Thereafter, ATP was Infused at a continuous rate. Subsequent infusions were given at MTD in the patient's home.\nCox regression models were fitted including interaction terms between treatment and dummy variables for short term (i.e. 0-8 wks) and long term survival (i.e. 0-6 mo; dummy variables for 0-8 wks and 8 wks-6 mo were combined into a single dummy variable (0-6 mo) since Cox proportional hazards assumption was tested and not rejected). Median survival time was determined by extrapolation from confounder-adjusted Kaplan Meier plots. Because of previously shown survival benefit of ATP treatment in weight-losing stage IIIB NSCLC patients (18), we also performed stratified analyses in weight-stable and weight-losing patients separately defined as ≤5% or >5% weight loss over the past 6 months (22).\nAll models were appropriately adjusted for confounders. Two-tailed p-values <0.05 were considered statistically significant."}, "TNF-α": {"test_system": "TNF-α", "conditions": "ex vivo stimulated whole blood; via P2Y11 receptor; cited from earlier work"}, "[2]": {"test_system": "patients with non-small-cell lung cancer (NSCLC)", "conditions": "cited from earlier work"}, "[3]": {"test_system": "stage IIIB/IV NSCLC patients", "conditions": "15 chemotherapy-naïve stage IIIB/IV NSCLC patients; one to four 96-hour cycles i.v. ATP 50-65 µg/kg.min at 4-week intervals; cited from earlier work"}, "[4]": {"test_system": "pre-terminal cancer patients", "experiment": "Randomized clinical trial: nutritional status (anthropometric measurements, nutritional intake) during the 8-week ATP intervention", "assay_type": "in vivo", "experimental": "as §1, §2, §3\nBody height was determined using a flexible measuring tape. Body weight was measured without shoes, using an electronic scale (Soehnle 7407 Translucia, Germany). Triceps skin fold thickness was measured in triplicate at the dominant arm, with a Holtain® skin fold caliper (CMS weighing equipment LTD, London UK), and the median used for further calculations. Mid-upper arm circumference was measured in duplicate at the dominant side with a flexible measuring tape, and the mean value was used for further calculations.\nIn order to exclude inter-observer variability, longitudinal measurements in one patient were performed by one observer. Nutritional intake was assessed by a 3-day food diary, including meal preparation details, and checked by an experienced dietician. Intake of energy and protein was calculated using the Dutch Food Composition Table 2001 (NEVO, The Hague, The Netherlands), by the Software Program Komeet (version 4.0.58; BaS Nutrition Software, Arnhem, The Netherlands).\nData were doubly entered and analyzed according to the intention-to-treat principle. Curves were fitted to describe the time course of nutritional status parameters, and differences over time between the two groups appraised by repeated measurement analysis of covariance, using SAS Proc Mixed version 9.1 (SAS Institute Inc., Cary, NC, USA). Independent variables were the treatment indicator variable, the baseline measurement, measurement time, and the interaction between time and treatment. Statistical significance of treatment effects was assessed by testing the interaction between time and treatment. For weight analyses, patients with oedema and/or ascites were excluded. Because of the favorable previous results in patients with lung cancer (17), all analyses were repeated for this subgroup separately."}}}
{"smiles": "Nc1ncnc2c1ncn2[C@@H]1O[C@H](COP(=O)(O)OP(=O)(O)OP(=O)(O)O)[C@@H](O)[C@H]1O", "note": "[ATP, adenosine 5'-triphosphate]", "values": [{"measurement": "IL-10 release", "setting": "IL-10", "value": "enhanced"}, {"measurement": "patients still alive on the census date", "setting": "[1]; census date 10 September 2007, ATP group n=51", "value": 6, "unit": "patients"}, {"measurement": "HR, survival", "setting": "[1]; lung cancer patients with >5% overall weight loss, p=0.052", "value": 0.21}, {"measurement": "HR, survival 0-8 weeks", "setting": "[1]; patients with lung cancer (n=44)", "value": 0.17}, {"measurement": "HR, survival 0-6 months", "setting": "[1]; patients with lung cancer (n=44), p=0.025", "value": 0.35}, {"measurement": "HR of ATP vs. control, short-term (0-8 weeks) survival", "setting": "[1]; total group (ATP n=51; control n=48), p=0.037", "value": 0.40}, {"measurement": "Median survival", "setting": "[1]; total group, ATP group, extrapolated from confounder-adjusted Kaplan Meier plots", "value": 150, "unit": "days"}, {"measurement": "HR, long term survival (0-6 months)", "setting": "[1]; total group, p=0.26, not significant", "value": 0.71}, {"measurement": "effect on survival", "setting": "[1]; weight-losing patients (>5% weight loss over past 6 months)", "value": "No significant effect"}, {"measurement": "HR, survival during the 8-week intervention", "setting": "[1]; weight-stable patients (≤5% weight loss over past 6 months; ATP n=33; control n=31), p=0.001", "value": 0.20}, {"measurement": "HR, long term survival (0-6 months)", "setting": "[1]; weight-stable patients, p=0.014", "value": 0.40}, {"measurement": "TNF-α release", "setting": "TNF-α", "value": "inhibited"}, {"measurement": "effects on nutritional intake, body weight, fat and muscle mass", "setting": "[2]; ATP infusions over 30 h at 2- to 4-week intervals, max. 75 µg/kg.min", "value": "marked beneficial effects"}, {"measurement": "survival", "setting": "[2]; weight-losing patients with stage IIIB NSCLC", "value": "highly significant survival benefit"}, {"measurement": "stable disease", "setting": "[3]", "value": 8, "unit": "patients"}, {"measurement": "Weight, change per 8 weeks, ATP group Estimate", "setting": "[4]; ATP i.v. weekly 8-10 h, max. 50 µg/kg·min, 8 weeks, n=26, oedema/ascites excluded", "value": -2.62, "unit": "kg"}, {"measurement": "Triceps skin fold thickness, change per 8 weeks, ATP group Estimate", "setting": "[4]; ATP i.v. weekly, max. 50 µg/kg·min, 8 weeks, n=48", "value": -1.84, "unit": "mm"}, {"measurement": "Mid-upper arm circumference, change per 8 weeks, ATP group Estimate", "setting": "[4]; ATP i.v. weekly, max. 50 µg/kg·min, 8 weeks, n=49", "value": -2.24, "unit": "cm"}, {"measurement": "intake of energy and protein, difference between the two groups", "setting": "[4]; ATP vs. control, 8 weeks, 3-day food diary", "value": "No statistically significant difference"}, {"measurement": "Triceps skin fold thickness, Between group difference Estimate per 8 weeks", "setting": "[4]; ATP vs. control, p=0.009", "value": 1.76, "unit": "mm"}]}
